The source of these data is article PMC8453745, “Human Mass Balance and Metabolite Profiling of [^14C]‐Pamiparib, a Poly (ADP‐Ribose) Polymerase Inhibitor, in Patients With Advanced Cancer” (Clinical Pharmacology in Drug Development, 2021).

Data set [1] can be described thus: metabolite profiling in pooled feces (radioprofiling, LC‐MS). Particulars: pooled feces. The data set is classed as in vivo, human. The method, then: Total radioactivity concentrations of [^14C]‐pamiparib in whole blood, plasma, urine, and feces were determined by liquid scintillation counting (LSC). Radioactivity in each sample was measured for 5 minutes using a Packard Tri‐Carb liquid scintillation counter model 2100TR, 2900TR, or 3100TR (Canberra Packard, Pangbourne, Berks, Australia) with the facilities for computing quench‐corrected disintegrations per minute. Metabolite identification in plasma, urine, and feces was conducted by LC‐MS. Quantitation of the metabolites present in plasma, urine, and feces was based on the profiles of radioactivity. The limit of quantitation for radioactivity in plasma, urine, and feces was set at 1% of each chromatographic analysis (run) and 10 counts per minute (cpm) peak height; therefore, radioactive peaks that were <1% of the total run or <10 cpm peak height were reported as not detected. In addition, pamiparib and standards were reported, regardless of the percentage of run or peak height.
Portions of fecal homogenates (about 200‐500 mg) were subjected to combustion analysis prior to LSC. For metabolite profiling, feces samples collected 0‐24, 24‐48, 48‐72, 72‐96, and 96‐120 hours postdose were pooled by individual patient to generate 0‐ to 120‐hour pooled samples including 0.5% of each sample by weight. Feces were pooled per patient (if required) according to the appropriate 24‐hour collection period. The samples were homogenized in deionized water, avoiding excessive dilution (data on file). The radioactivity in each pooled sample was determined by LSC. The total amount of feces collected was factored into the recovery calculation. Approximately 1.6 to 2.7 g of each pooled feces sample was extracted twice with 6 mL of 0.1% formic acid in ACN. […] The combined supernatants were evaporated to dryness under nitrogen and reconstituted in 300 μL of MeOH. […] The reconstituted samples were analyzed by LC‐MS, with eluent fractions collected, and radiochemical profiles were generated based on radioactivity counts. […]

Data set [2] is described as follows: metabolic stability in human liver microsomes. Type of data set: in vitro ADME. Particulars: human, pooled human liver microsomes, 1 μM, 0.5 mg/mL HLM, NADPH. The method, then:
(§1) Metabolic stability in human liver microsomes (HLMs) and cytochrome P450 (CYP450) phenotyping assays were conducted in 3D BioOptima (Suzhou, China) using validated methodology, [13] to determine the intrinsic clearance and enzymes responsible for metabolism of pamiparib. HLMs for microsome stability was from BD Biosciences (Woburn, New York). For phenotyping, HLMs and recombinant P450 (rCYP) were from Corning (Woburn, New York). Pamiparib (1 μM) was incubated with pooled HLM (0.5 mg/mL), NADPH (1 mM), and MgCl2 (3 mM) terminated at 0, 5, 15, 30, 60, and 90 minutes. The intrinsic clearance was calculated as 0.693/(t1/2 × HLM concentration), where t1/2 is the half‐life of pamiparib determined in HLMs. For phenotyping in HLMs, pamiparib (1 μM) was incubated in the absence or presence of isoform‐selective inhibitors: 0.2 μM α‐naphthoflavone for CYP1A2, 2 μM clopidogrel for CYP2B6, 16 μM montelukast for CYP2C8, 10 μM sulfaphenazole for CYP2C9, 30 μM nootkatone for CYP2C19, 2 μM quinidine for CYP2D6, and 1 μM ketoconazole for CYP3A. The following isoform‐selective probe substrates served as positive controls: 40 μM phenacetin for CYP1A2, 100 μM bupropion for CYP2B6, 2 μM amodiaquine for CYP2C8, 5 μM diclofenac for CYP2C9, 40 μM S‐mephenytoin for CYP2C19, 5 μM dextromethorphan for CYP2D6, and 2 μM midazolam for CYP3A4. […] Pamiparib (1 μM) was also incubated with rCYP1A2, rCYP2B6, rCYP2C8, rCYP2C9, rCYP2C19, rCYP2D6, or rCYP3A4 (50 pmol/mL) for 90 minutes with NADPH and MgCl2. The following isoform‐selective probe substrates served as positive controls: 1 μM phenacetin for CYP1A2, 2 μM bupropion for CYP2B6, 2 μM amodiaquine for CYP2C8, 2 μM diclofenac for CYP2C9, 10 μM S‐mephenytoin for CYP2C19, 1 μM dextromethorphan for CYP2D6, and 20 μM midazolam for CYP3A4. Pamiparib, M1, and M2 were analyzed by LC‐MS/MS.
(Liver microsomes are a subcellular fraction often used to study metabolism.)

Data set [3] has as its system human liver microsomes (HLMs). As to the kind of experiment: metabolic stability in human liver microsomes. Type of data set: in vitro ADME. Particulars: 90‐minute incubation in HLMs without CYP inhibitors. The method, then: as §1
For the next data set, the target named is T1, CYP2C8 (Homo sapiens, UniProt P10632).
T1 construct: tissue Corning (Woburn, New York); host or cells: pooled human liver microsomes
T1 sequence (P10632 1-490): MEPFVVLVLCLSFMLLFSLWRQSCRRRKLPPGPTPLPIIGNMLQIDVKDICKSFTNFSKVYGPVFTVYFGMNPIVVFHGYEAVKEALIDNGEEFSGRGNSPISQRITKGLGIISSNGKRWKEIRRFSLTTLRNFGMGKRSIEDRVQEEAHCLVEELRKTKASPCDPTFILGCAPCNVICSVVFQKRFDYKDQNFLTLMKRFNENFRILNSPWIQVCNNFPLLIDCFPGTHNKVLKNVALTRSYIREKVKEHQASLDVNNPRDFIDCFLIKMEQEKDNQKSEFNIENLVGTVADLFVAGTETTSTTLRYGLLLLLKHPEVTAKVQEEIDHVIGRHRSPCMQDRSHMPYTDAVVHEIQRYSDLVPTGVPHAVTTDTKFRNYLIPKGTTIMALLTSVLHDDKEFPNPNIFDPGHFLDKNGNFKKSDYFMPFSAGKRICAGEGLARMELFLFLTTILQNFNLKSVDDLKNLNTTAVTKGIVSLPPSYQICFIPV
The data set is described as follows: CYP450 phenotyping in HLMs with CYP2C8 inhibitor montelukast. The data set is classed as in vitro ADME. Particulars: 90‐minute HLM incubation with CYP2C8 inhibitor montelukast (16 μM). On the procedure:
Metabolic stability in human liver microsomes (HLMs) and cytochrome P450 (CYP450) phenotyping assays were conducted in 3D BioOptima (Suzhou, China) using validated methodology, [13] to determine the intrinsic clearance and enzymes responsible for metabolism of pamiparib. HLMs for microsome stability was from BD Biosciences (Woburn, New York). For phenotyping, HLMs and recombinant P450 (rCYP) were from Corning (Woburn, New York). Pamiparib (1 μM) was incubated with pooled HLM (0.5 mg/mL), NADPH (1 mM), and MgCl2 (3 mM) terminated at 0, 5, 15, 30, 60, and 90 minutes. The intrinsic clearance was calculated as 0.693/(t1/2 × HLM concentration), where t1/2 is the half‐life of pamiparib determined in HLMs. For phenotyping in HLMs, pamiparib (1 μM) was incubated in the absence or presence of isoform‐selective inhibitors: 0.2 μM α‐naphthoflavone for CYP1A2, 2 μM clopidogrel for CYP2B6, 16 μM montelukast for CYP2C8, 10 μM sulfaphenazole for CYP2C9, 30 μM nootkatone for CYP2C19, 2 μM quinidine for CYP2D6, and 1 μM ketoconazole for CYP3A. The following isoform‐selective probe substrates served as positive controls: 40 μM phenacetin for CYP1A2, 100 μM bupropion for CYP2B6, 2 μM amodiaquine for CYP2C8, 5 μM diclofenac for CYP2C9, 40 μM S‐mephenytoin for CYP2C19, 5 μM dextromethorphan for CYP2D6, and 2 μM midazolam for CYP3A4. […] Pamiparib, M1, and M2 were analyzed by LC‐MS/MS.

In data set [4] the test system is BRCA1 mutant mouse xenograft. As to conditions: BRCA1 mutant mouse xenograft model; cited from earlier work.

One may read the half-life as the time needed for the level to fall by half in the phase considered.

The structures appear in SMILES notation.

For the compound `C[C@]12CCCN1CC1=NNC(=O)c3cc(F)cc4[nH]c2c1c34` [Pamiparib], in data set [1], the “dose quantified in feces” value is on record as 17.5 % of the dose. In data set [2], this compound yielded a half-life at 1 μM of 3 h. Besides, in data set [2] (read-out: intrinsic clearance in HLM), the microsomal CLint at 1 μM was found to be 7.9 µL/min/mg. Besides, in data set [3], the pamiparib remaining was 45.0%. Moreover, on CYP2C8, the pamiparib remaining is given as 82.9%. In addition, in data set [4], the antitumor activity result is reported as “strong antitumor activity” and the “potency compared with olaparib” value was “more potent than olaparib”.
